Laboratory results taken from patent US9737546B2, “Small molecules to enhance P53 activity” (THE REGENTS OF THE UNIVERSITY OF CALIFORNIA, priority 2013, dated 2017).

Key:
p53 R175H = p53 R175H (Homo sapiens, UniProt P04637, R175H); conditions: cited from earlier work
p53 cancer mutant R175H = biological target: T1, p53 cancer mutant R175H (Homo sapiens, UniProt P04637, R175H); assay: p53 reactivation assay (cell killing / proliferation arrest) in Saos-2 cells expressing p53 cancer mutant R175H; assay type: cell-based; conditions: 50 μM pre-heated PRIMA-1, 72 h, Saos-2 cells (FIG. 5)
T1 construct: expressed in transfected cells; host or cells: Saos-2 (p53null) human osteosarcoma cells
Procedure: (§1) FIG. 5 is a graph showing that PRIMA-1 acts through cysteine 124 in p53. p53null Saos-2 cells expressing wild type p53, or the indicated p53 mutants, were treated with 50 μM pre-heated PRIMA-1 (“+”, left bar) or the medium without PRIMA-1 (DMSO, “−”, right bar) for 72 h. The increase in cell number during 72 h of growth is shown. Standard deviations represent 4 independent samples (Wassman, et al., 2013).
(§2) The increase in cell number during 72 h of growth is shown. As expected, the p53 cancer mutant R175H was activated by PRIMA-1. Mutating cysteine 124 to alanine blocked PRIMA-1 induced cancer mutant reactivation.
The basis for our primary assay is that cancer cells cannot tolerate active p53, stop proliferation, and eventually die. Expression of functional p53 in p53null Saos-2 osteosarcoma cells blocks their proliferation; expression of p53 cancer mutants has no effect (Wassman et al., 2013) (FIG. 5). Importantly, compounds that reactivate p53 cancer mutants specifically block proliferation of Saos-2 cells expressing p53 cancer mutants, but have no effect on growth of p53null cells at the same concentration (FIG. 3). […]
(§3) Our primary screen is the p53 cancer mutant R175H, which is the single most prevalent human cancer mutation. Active compounds were re-evaluated using an independent cell line expressing a different p53 cancer mutant, G245S.

p53 cancer mutants = assay: p53-dependent cell killing (or proliferation arrest) in Saos-2 cells expressing p53 cancer mutants; assay type: cell-based, human
Procedure: FIG. 3C is a graph of dose response curves for compounds 33BAZ and 27UDP using four different p53 cancer mutants: R175H, G245S, R248W, and R273H. Experimental conditions are as in FIG. 3A.
FIG. 3D is a panel of graphs of broad spectrum activity for four other compounds using four different p53 cancer mutants: R175H, G245S, R248W, and R273H. Experimental conditions are as in FIG. 3C, but a single dose was assayed: 27VFS (20 μM), 35LWZ (50 μM), 27WT9 (10 μM), and 26RQZ (10 μM).
Our previous p53 reactivation assays focused on p53-driven expression of the canonical p53 target genes p21 and PUMA (Wassman et al., 2013). However, there is significant evidence that neither p21 nor PUMA expression predict p53 anti-tumor activity (Hock & Vousden, 2012; Li et al., 2012; Valente et al., 2013). Indeed, our results comparing effects of PRIMA-1 and stictic acid support this view. […] We now use p21 and PUMA expression as an independent transcription assay for p53 cancer mutant reactivation, but not the primary selection criterion. We changed to p53-dependent cell killing (or proliferation arrest) as our main measure of efficacy because our long-term goal is anti-tumor drugs. […]
as §3

[1] = tested on: parental Saos-2 (p53^null) cells; assay: Cell proliferation of parental Saos-2 (p53null) cells, CellTiter-Glo; assay type: cell-based; conditions: cultured 3 days, max. 200 μM, Zinc Leads Now compounds (FIG. 3A)
Procedure: FIG. 3A is a graph of reactivation activities of various compounds. Saos-2 cells expressing no p53 (p53^null), or expressing one of the cancer mutants p53-R175H or p53-G245S, were cultured for 3 days in the presence of different concentrations of compounds that had been selected from the Zinc Leads Now database, version of January, 2011, by the computational methods described below. The p53 reactivation compounds shown correspond to FIG. 1. Cell numbers were measured using the CellTiter-Glo® reagent. […] Data are presented as the standard error of the mean (n=3). Note that as of this writing eight compounds have been tested on the R175H mutant only (32CTM, 28NZ6, 27TGR, 27VFS, 35LWZ, 36EB5, 32LDE, and 32JCB).
FIG. 3B is a graph of reactivation activities of various compounds. Experimental conditions are as in FIG. 3A, but compounds were selected from the Chembridge Express Pick Library 2012 database, by the computational methods described below. The p53 reactivation compounds shown correspond to FIG. 2.
The basis for our primary assay is that cancer cells cannot tolerate active p53, stop proliferation, and eventually die. […]
as §3

[2] = biological target: T2, R175H-p53 with A124 (cysteine 124 to alanine) (Homo sapiens, UniProt P04637, C124A/R175H); assay: PRIMA-1 treatment of Saos-2 cells expressing R175H-p53 with cysteine 124 changed to alanine; assay type: cell-based; conditions: 50 μM pre-heated PRIMA-1, 72 h, Saos-2 cells (FIG. 5)
T2 construct: expressed in transfected cells; host or cells: Saos-2 (p53null) human osteosarcoma cells
Procedure: as §1
Although the region around residue C124 is enriched for cancer rescue mutations, changes in position 124 have never been found, nor were they predicted by our SVM classifier, to reactivate p53 cancer mutants. Indeed, directed saturation mutagenesis of position 124 in the context of the R175H p53 cancer mutation explored all single amino acid changes at C124 and confirmed the absence of any genetic mutation rescue activity at this position. We could therefore test the computer predictions for a role of C124 in covalent drug binding in vivo by changing C124 into alanine to prevent the hypothetical thiol-mediated link with MQ.
as §2

[3] = tested on: p53-dependent reporter expression (p21 and PUMA promoter elements); assay: p21 and PUMA expression / transcriptional reporter assay based on p21 and PUMA promoter elements; assay type: cell-based, human; conditions: comparison of stictic acid and PRIMA-1
Description: Our previous p53 reactivation assays focused on p53-driven expression of the canonical p53 target genes p21 and PUMA (Wassman et al., 2013). However, there is significant evidence that neither p21 nor PUMA expression predict p53 anti-tumor activity (Hock & Vousden, 2012; Li et al., 2012; Valente et al., 2013). Indeed, our results comparing effects of PRIMA-1 and stictic acid support this view. […] We now use p21 and PUMA expression as an independent transcription assay for p53 cancer mutant reactivation, but not the primary selection criterion. We changed to p53-dependent cell killing (or proliferation arrest) as our main measure of efficacy because our long-term goal is anti-tumor drugs.
An independent test for p53 cancer mutant reactivation is the well-established transcriptional reporter assay based on p21 and PUMA promoter elements (Wassman, et al., 2013). As above, the magnitude of reactivated p53-dependent transcription is not considered relevant for a compound's potency in cancer cell killing.

CC(=NNC(=S)N(C)C)c1ccccn1 [NSC319725]
allele specificity of p53 mutant reactivation (p53 R175H): R175H allele-specific

C/C(=N\NC(=S)N1CCC1)c1ccccn1 [NSC319726]
allele specificity of p53 mutant reactivation (p53 R175H): R175H allele-specific

O=C1C2CCN(CC2)C1(CO)CO [PRIMA-1]
effect on cells expressing the inactive R175H p53 (p53 cancer mutant R175H): reactivation and induction of cell death | p53-dependent killing/arresting of cells (p53 cancer mutants; comparison of PRIMA-1 and stictic acid): considerably more potent | highest compound concentration that did not significantly affect cell proliferation of the parental Saos-2 (p53null) cells [1]: 50 µM | PRIMA-1 effects after introduction of A124 in R175H-p53 [2]: completely eliminated

COc1cc(C)c2c(c1C=O)Oc1c(c(C)c(O)c3c1C(O)OC3=O)OC2=O (centres unmarked) [stictic acid]
p53 reactivation in biological assays (p53 cancer mutants; one of 45 screened NCI DTP compounds): proved to be a p53 reactivation compound | restoring p21 and PUMA expression in p53 cancer mutants [3]: significantly better than PRIMA-1
